Literature values as cited in patent US20130137635A1, “TRYPTOPHAN HYDROXYLASE INHIBITORS FOR THE TREATMENT OF METASTATIC BONE DISEASE” (LEXICON PHARMACEUTICALS, INC., priority 2010, published 2013).

Key:
carcinoid syndrome = details: patients; reported in the 1960's
[1] = tested on: cholangiocarcinoma tumors; details: in vivo xenograft model of cholangiocarcinoma tumors; pCPA treatment

## N[C@@H](Cc1ccc(Cl)cc1)C(=O)O (racemic) [pCPA, para-chlorophenylalanine]
Carcinoid syndrome
  effect on symptoms of carcinoid syndrome: alleviated some of the symptoms of carcinoid syndrome
  side effects on administration: unacceptable side effects
[1]
  tumor growth: suppressed tumor growth
